Earlier results, collected in US20060210650A1, “Supplemental dietary composition for promoting weight loss” (priority 2004, published 2006).

Details: 8-week study

## O=C(O)CC(O)(C(=O)O)C(O)C(=O)O (single isomer, unassigned; (-)) [HCA, (−) hydroxycitric acid]
  High-Density Lipoproteins and excretion of urinary fat metabolites: increased
  LDL-cholesterol, triglycerides and serum leptin levels: decrease
